{"source": "the supplement of paper PMC6045584", "key": {"CAMPTOTHECIN": {"compound": "CC[C@@]1(O)C(=O)OCc2c1cc1n(c2=O)Cc2cc3ccccc3nc2-1 [CAMPTOTHECIN]", "test": "surviving fraction relative to DMSO-only wells; higher = less growth inhibition", "settings": "exposure time: 5 days", "how_it_was_run": "(§1)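 At 250–500 cells per well in 384-well plates, log-phase tumour cell lines were seeded and, 24 hours on, exposed continuously for five days to inhibitors at 0.5, 1, 5, 10, 50, 100, 500 and 1000 nM. Viability readout was CellTiter-Glo luminescence, reported as surviving fraction normalised to the median of DMSO-only wells.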"}, "[1]": {"compound": "CC(=O)NCC(=O)N1[C@@H]2CC[C@H]1c1ccc(Nc3ncc(C(F)(F)F)c(NC4CCC4)n3)cc12", "test": "surviving fraction relative to DMSO-only wells; higher = less growth inhibition", "settings": "exposure time: 5 days", "how_it_was_run": "as §1"}}, "note": "± gives the standard deviation of the averaged measurements."}
{"test system": "SCC90 HEADNECK", "values": [{"measurement": "surviving fraction", "setting": "CAMPTOTHECIN; 0.5 nM", "result": "0.823 ± 0.035"}, {"measurement": "surviving fraction", "setting": "CAMPTOTHECIN; 1 nM", "result": "0.879 ± 0.043"}, {"measurement": "surviving fraction", "setting": "CAMPTOTHECIN; 5 nM", "result": "0.904 ± 0.058"}, {"measurement": "surviving fraction", "setting": "CAMPTOTHECIN; 10 nM", "result": "0.75 ± 0.046"}, {"measurement": "surviving fraction", "setting": "CAMPTOTHECIN; 50 nM", "result": "0.343 ± 0.056"}, {"measurement": "surviving fraction", "setting": "CAMPTOTHECIN; 100 nM", "result": "0.253 ± 0.032"}, {"measurement": "surviving fraction", "setting": "CAMPTOTHECIN; 500 nM", "result": "0.04 ± 0.0076"}, {"measurement": "surviving fraction", "setting": "CAMPTOTHECIN; 1000 nM", "result": "0.0327 ± 0.0051"}, {"measurement": "surviving fraction", "setting": "[1]; 0.5 nM", "result": "0.769 ± 0.12"}, {"measurement": "surviving fraction", "setting": "[1]; 1 nM", "result": "0.816 ± 0.048"}, {"measurement": "surviving fraction", "setting": "[1]; 5 nM", "result": "0.936 ± 0.035"}, {"measurement": "surviving fraction", "setting": "[1]; 10 nM", "result": "0.991 ± 0.089"}, {"measurement": "surviving fraction", "setting": "[1]; 50 nM", "result": "0.66 ± 0.13"}, {"measurement": "surviving fraction", "setting": "[1]; 100 nM", "result": "0.62 ± 0.084"}, {"measurement": "surviving fraction", "setting": "[1]; 500 nM", "result": "0.665 ± 0.048"}, {"measurement": "surviving fraction", "setting": "[1]; 1000 nM", "result": "0.613 ± 0.017"}]}
